Key:
EMG-CoA reductase = details: cited from earlier work
[1] = molecular target: recombinant human farnesyl transferase (Homo sapiens, UniProt P49354+P49356); experiment: In vitro inhibition of ras farnesyl transferase; format: biochemical; details: read-out: ID50, Inhibition of RAS farnesylation (concentration which gives 50% inhibition of FTase)
Protocol: In vitro inhibition of ras farnesyl transferase
The assay was conducted as described in Pompliano, et. al., Biochemistry 31, 3800 (1992) with the exception of utilizing recombinant human farnesyl transferase in place of the partially purified bovine enzyme described therein.

[2] = system: Ras farnesylation in the v-ras cell line; experiment: In vivo ras farnesylation assay (v-ras cell line); format: cell-based; details: v-ras cells; 4 h pretreatment at 37° C., then 20 h labelling; read-out: IC50, Inhibition of Ras Farnesylation in the v-ras cell line
Protocol: In vivo ras farnesylation assay
The cell line used in this assay was the v-ras line, which expressed vital Ha-ras p21. The assay was performed essentially as described in DeClue, J. E. et. al., Cancer Research 51, 712-717, (1991). Cells in 10 cm dishes at 50-75% confluency were treated with the test compound (final concentration of solvent, methanol or dimethyl sulfoxide, was 0.1%). After 4 hours at 37° C., the cells were labelled in 3 ml methionine-free DMEM supplemeted with 10% regular DMEM, 2% fetal bovine serum and 400 μCi ^35 S!methionine (1000 Ci/mmol). After an additional 20 hours, the cells were lysed in 1 ml lysis buffer (1% NP40/20 mMHEPES, pH 7.5/5 mM MgCl2 /1 mM DTT/10 μg/ml aprotinen/2 μg/ml leupeptin/2 μg/ml antipain/0.5 mM PMSF) and the lysates cleared by centrifugation at 100,000×g for 45 min. Aliqouts of lysates containing equal numbers of acid-precipitable counts were bought to 1 ml with IP buffer (lysis buffer lacking DTT) and immunoprecipitated with the ras-specific monoclonal antibody Y13-259 (Furth, M. E. et. al., J. Virol. 43, 294-304, (1982)). Following a 2 hour antibody incubation at 4° C., 200 μl of a 25% suspension of protein A-Sepharose coated with rabbit anti rat IgG was added for 45 min. The immunoprecipitates were washed four times with IP was buffer ([…] HEPES, pH 7.5/1 mM EDTA/ 1% Triton X-100.0.5% deoxycholate/0.1%/SDS/0.1M NaCl) boiled in SDS-PAGE sample buffer and loaded on 13% acrylamide gels. When the dye front reached the bottom, the gel was fixed, soaked in Enlightening, dried and autoradiographed. The intensities of the bands corresponding to farnesylated and nonfarnesylated ras proteins were compared to determine the percent inhibition of farnesyl transfer to protein.

SMILES | IC50 [1] [nM] | IC50 [2] [nM] | also measured
CC[C@H](C)C(=O)O[C@H]1C[C@@H](C)C=C2C=C[C@H](C)[C@H](CC[C@@H]3C[C@@H](O)CC(=O)O3)[C@H]21 [lovastatin] |  |  | inhibition of EMG-CoA reductase (EMG-CoA reductase): inhibit EMG-CoA reductase
CCCC[C@H](/C=C/[C@@H](NC[C@@H](N)CS)[C@@H](C)CC)C(=O)N[C@@H](CCSC)C(=O)O [5(S)-2(R)-amino-3-mercaptopropyl-amino!-6(S)-methyl-2(R)-n-butyl-3,4-E-octenoyl-methionine] | 2.5 |  | 
CC[C@H](C)[C@@H](/C=C/[C@@H](Cc1ccccc1)C(=O)N[C@H]1CCOC1=O)NC[C@@H](N)CS [5(S)-2(R)-amino-3-mercaptopropylamino!-6(S)-methyl-2(R)-benzyl-3,4-E-octenoyl-homoserine lactone] |  | 5000 to 10000 | 
CC(C)[C@H](/C=C/[C@@H](NC[C@@H](N)CS)C(C)C)C(=O)N[C@@H](CCO)C(=O)O [5(S)-2(R)-amino-3-mercaptopropylamino!-6-methyl-2(R)-i-propyl-3,4-E-heptenoyl-homoserine] | 5 |  | 
CCCC[C@H](/C=C/[C@@H](NC[C@@H](N)CS)[C@@H](C)CC)C(=O)N[C@@H](CCO)C(=O)O [5(S)-2(R)-amino-3-mercaptopropyl-amino!-6(S)-methyl-2(R)-n-butyl-3,4-E-octenoyl-homoserine] | 1.5 |  | 
CC[C@H](C)C(=O)O[C@H]1CCC=C2C=C[C@H](C)[C@H](CC[C@@H]3C[C@@H](O)CC(=O)O3)[C@H]21 [compactin] |  |  | inhibition of EMG-CoA reductase (EMG-CoA reductase): inhibit EMG-CoA reductase
CC(C)[C@H](/C=C/[C@@H](NC[C@@H](N)CS)C(C)C)C(=O)N[C@H]1CCOC1=O [5(S)-2(R)-amino-3-mercaptopropylamino!-6-methyl-2(R)-i-propyl-3,4-E-heptenoyl-homoserine lactone] |  | 1000 | 
CC[C@H](C)[C@@H](/C=C/[C@H](C(=O)N[C@H]1CCOC1=O)C(C)C)NC[C@@H](N)CS [5(S)-2(R)-amino-3-mercaptopropylamino!-6(S)-methyl-2(R)-i-propyl-3,4-E-octenoyl-homoserine lactone] |  | 1000 to 2500 | 
CCC[C@H](/C=C/[C@@H](NC[C@@H](N)CS)[C@@H](C)CC)C(=O)N[C@@H](CCO)C(=O)O [5(S)-2(R)-amino-3-mercaptopropylamino!-6(S)-methyl-2(R)-n-propyl-3,4-E-octenoyl-homoserine] | 4 |  | 
CC[C@H](C)[C@@H](/C=C/[C@H](C(=O)N[C@@H](CCSC)C(=O)OC)C(C)C)NC[C@@H](N)CS [5(S)-2(R)-amino-3-mercaptopropylamino!-6(S)-methyl-2(R)-i-propyl-3,4-E-octenoyl-methionine, methyl ester] |  | 100 | 
CC[C@H](C)[C@@H](/C=C/[C@H](C(=O)N[C@@H](CCO)C(=O)O)C(C)C)NC[C@@H](N)CS [5(S)-2(R)-amino-3-mercaptopropyl-amino!-6(S)-methyl-2(R)-i-propyl-3,4-E-octenoyl-homoserine] | 3.5 |  | 
CCCC[C@H](/C=C/[C@@H](NC[C@@H](N)CS)[C@@H](C)CC)C(=O)N[C@@H](CCSC)C(=O)OC [5(S)-2(R)-amino-3-mercaptopropylamino!-6(S)-methyl-2(R)-n-butyl-3,4-E-octenoyl-methionine, methyl ester] |  | 1000 | 
CCC[C@H](/C=C/[C@@H](NC[C@@H](N)CS)[C@@H](C)CC)C(=O)N[C@H]1CCOC1=O [5(S)-2(R)-amino-3-mercaptopropylamino!-6(S)-methyl-2(R)-n-propyl-3,4-E-octenoyl-homoserine lactone] |  | 5000 | 
CC[C@H](C)[C@@H](/C=C/[C@H](C(=O)N[C@@H](CCSC)C(=O)O)C(C)C)NC[C@@H](N)CS [5(S)-2(R)-amino-3-mercaptopropylamino!-6(S)-methyl-2(R)-i-propyl-3,4-E-octenoyl-methionine] | 20 |  | 
CC[C@H](C)[C@@H](/C=C/[C@@H](Cc1ccccc1)C(=O)N[C@@H](CCSC)C(=O)OC)NC[C@@H](N)CS [5(S)-2(R)-amino-3-mercaptopropylamino!-6(S)-methyl-2(R)-benzyl-3,4-E-octenoyl-methionine, methyl ester] |  | 1000 | 
CC[C@H](C)[C@@H](/C=C/[C@@H](Cc1ccccc1)C(=O)N[C@@H](CCSC)C(=O)O)NC[C@@H](N)CS [5(S)-2(R)-amino-3-mercaptopropylamino!-6(S)-methyl-2(R)-benzyl-3,4-E-octenoyl-methionine] | 1.9 |  | 
